Results: patent publication EP0098942A1, “Optically active imidazolylpropanol compounds, and their production and use” (SUMITOMO CHEMICAL COMPANY, LIMITED, priority 1982, dated 1984)

Key:
[1] = tested on: Candida albicans, strain KB-8 (clinical isolate); test: In vitro inhibition of pseudomycelium formation; assay type: cell-based; details: effective dose to inhibit formation of pseudomycelium, light microscopy at 72 hours after inoculation, Eagle's MEM, 37°C, 5 % CO2, read-out: Minimum effective dose
Experimental: Candida albicans, strain KB-8 (clinical isolate), was maintained on Sabouraud's agar slants at room temperature. Yeast cells were grown at 37°C on Sabouraud's agar and a loopful from a 24 hours' slant was inoculated in 4.5 ml of Sabouraud's broth and cultured at 37°C for 24 hours. A 0.5 ml aliquot of this culture was inoculated in 100 ml of a casein hydrolysate yeast-extract glucose medium (CYG medium). Cells were grown at 37°C aerobically in a reciprocating shaker for 48 hours. From this culture, a 0.2 ml aliquot was again inoculated in 100 ml CYG medium and grown for another 24 hours at 37°C while shaking.
The pseudomycelium growth-promoting medium consisted of Eagle's minimal essential medium supplemented with non-essential amino acids and sodium bicarbonate (2 g/liter). Yeast cells were seeded at densities of 1.0 x 10^5/ml in sterile culture tubes (010 x 100 mm) containing 3 ml of medium. Cells were grown in a humidified atmosphere of 5 % C02 in air at 37°C.
The effects of the test compound were evaluated . under the following conditions: the cultures were exposed to the test compound in doses ranging from […] to 10^-4 M; the solvent for the test compound was added as an aqueous solution. Pseudomycelium development was observed by light microscopy at 72 hours after inoculation.

Candida albicans KB-8 = test: Number of viable cells in the kidney of Candida-infected mice; assay type: in vivo, DDY strain male mice; details: per os, total dose 20 mg/kg; for Medicated group, number of cells in kidney (cell/g): given immediately and 5 hours after infection, kidneys taken 24 hours after infection; for Medicated/ Non-medicated (logarithmic value): kidney cell count 24 hours after infection, non-medicated group 1.45x10^5 cell/g
Experimental: Candida albicans KB-8 was cultured on a Sabouraud's agar plate admixed with blood in a concentration of 5 % (v/v) - at 30°C for 4 days, suspended in physiologically saline solution and diluted to approximately 10,000,000 cells/ml. DDY strain male mice were […] via the tail vein with 0.2 ml of this suspension.
The animals were orally medicated with the test compound in the form of 0,5 % (w/v) methylcellulose supension at a total dose of 20 mg per kg of the body weight immediately and 5 hours after the infection.
After 24 hours from the infection, the animals were sacrificed, and the kidneys were taken out. After the kidneys were homogenized in 4 fold sterilized physiologically saline solution, a certain amount of the suspension was scattered on a Sabouraud's agar plate and cultured at 37°C for 48 hours. Then, the number of colonies was counted, the number of cells per one gram of the kidney was calculated, and the difference between the calculated numbers in the medicated group and in the non- medicated group was expresed by a logarithmic value.

Row | SMILES | minimal effective concentration [1] | Medicated group, number of cells in kidney (cell/g) (Candida albicans KB-8) | Medicated/ Non-medicated (logarithmic value) (Candida albicans KB-8)
1 | CCCCSC[C@](O)(Cn1ccnc1)c1ccc(Cl)cc1Cl [I (n=3), (R)-3-(n-butylthio)-2-(2,4-dichlorophenyl)-1-(imidazol-1-yl)-2-propanol] | 0.001 µM | 1.41x10^3 cell/g | -2.01
2 | CCCCSCC(O)(Cn1ccnc1)c1ccc(Cl)cc1Cl (racemic) [A] | 0.1 µM | 1.86x10^3 cell/g | -1.89
3 | CCCCSC[C@@](O)(Cn1ccnc1)c1ccc(Cl)cc1Cl [B, (S)-3-(n-butylthio)-2-(2,4-dichlorophenyl)-1-(imidazol-1-yl)-2-propanol] | 1 µM | 1.82x10^4 cell/g | -0.90
